Reference: ChEMBL document CHEMBL3608207, “Synthesis, characterization, evaluation and molecular dynamics studies of 5, 6-diphenyl-1,2,4-triazin-3(2H)-one derivatives bearing 5-substituted 1,3,4-oxadiazole as potential anti-inflammatory and analgesic agents” (Eur J Med Chem, 2015)

Key:
[1] = In-vitro anti-inflammatory activity assessed as inhibition of denaturation of bovine serum albumin at equimolar dose relative to 10 mg indomethacin; format: functional
[2] = test system: Rattus norvegicus; assay: (§1) Renal toxicity in rat Freund's adjuvant induced arthritis model of chronic inflammation assessed as assessed as total protein level at equimolar oral dose relative to 10 mg/kg, po indomethacin dosed after 14 days from day of adjuvant injection until day 21 and measured on day 21 (reference value: 1.78 +/- 0.11 g/dL); format: organism-based; conditions: in vivo, 336 h
[3] = test system: Rattus norvegicus; assay: Toxicity in healthy albino rat assessed as induction of mortality at 500 mg/kg, po measured after 14 days; format: organism-based; conditions: in vivo, 336 h
[4] = test system: Rattus norvegicus; assay: as §1, with “Hepato-toxicity” for “Renal toxicity”, “alkaline phosphatase” for “total protein”, “17.82” for “1.78”, “1.2 U)” for “0.11 g/dL)”; format: organism-based; conditions: in vivo, 336 h
[5] = target: T1, Prostaglandin G/H synthase 1 (Ovis aries, UniProt P05979); assay: Inhibition of ovine COX1 by oxidized TMPD detection based colorimetric assay
T1 sequence (P05979 whole entry): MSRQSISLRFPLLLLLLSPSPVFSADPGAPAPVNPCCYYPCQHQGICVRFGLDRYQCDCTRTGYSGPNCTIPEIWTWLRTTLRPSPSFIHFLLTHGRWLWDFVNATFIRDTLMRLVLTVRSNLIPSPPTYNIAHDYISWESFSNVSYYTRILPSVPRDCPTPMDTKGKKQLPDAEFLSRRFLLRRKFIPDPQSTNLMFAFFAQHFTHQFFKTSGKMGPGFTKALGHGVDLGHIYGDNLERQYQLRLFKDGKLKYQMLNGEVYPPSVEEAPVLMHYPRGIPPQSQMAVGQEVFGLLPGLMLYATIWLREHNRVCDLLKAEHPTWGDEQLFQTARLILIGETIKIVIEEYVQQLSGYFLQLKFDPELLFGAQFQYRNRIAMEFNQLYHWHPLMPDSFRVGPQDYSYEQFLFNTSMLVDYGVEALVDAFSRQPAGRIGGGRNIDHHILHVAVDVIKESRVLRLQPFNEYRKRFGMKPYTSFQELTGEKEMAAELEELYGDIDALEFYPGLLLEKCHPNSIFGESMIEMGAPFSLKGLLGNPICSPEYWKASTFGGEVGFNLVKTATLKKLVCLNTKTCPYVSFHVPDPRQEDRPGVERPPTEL

[6] = test system: Rattus norvegicus; assay: Toxicity in healthy albino rat assessed as induction of changes in autonomic or behavioural responses up to 500 mg/kg, po; format: organism-based; conditions: in vivo
[7] = test system: Rattus norvegicus; assay: Toxicity in healthy albino rat assessed as induction of convulsion up to 500 mg/kg, po; format: organism-based; conditions: in vivo
[8] = test system: Mus musculus; assay: Analgesic activity in Swiss albino mouse assessed as reduction in formalin-induced paw licking by measuring time spent on licking during phase-2 at equimolar oral dose relative to 10 mg/kg, po indomethacin dosed 1 hr before formalin challenge and measured 30 mins after formalin injection; format: functional
[9] = test system: Rattus norvegicus; assay: Anti-inflammatory activity in rat model of acute inflammation assessed as inhibition of carrageenan-induced paw oedema dosed at equimolar oral dose relative to 10 mg/kg, po indomethacin dosed 1 hr before carrageenan injection and measured 5 hrs after carrageenan injection relative to 10 mg/kg, po indomethacin; format: functional
[10] = test system: Rattus norvegicus; assay: Anti-inflammatory activity in rat model of sub-chronic inflammation assessed as inhibition of cotton pellet-induced granuloma by measuring weight of granulation dosed once daily at equimolar oral dose relative to 10 mg/kg, po indomethacin for seven consecutive days from day of cotton pellet insertion (94.13 +/- 8.1 mg); format: functional
[11] = Octanol/water partition coefficient, log P of the compound by shake flask method; format: physicochemical
[12] = test system: Rattus norvegicus; assay: Toxicity in healthy albino rat assessed as induction of lethargy up to 500 mg/kg, po; format: organism-based; conditions: in vivo
[13] = test system: Rattus norvegicus; assay: Anti-inflammatory activity in rat Freund's adjuvant induced arthritis model of chronic inflammation assessed as inhibition of right hind paw swelling at equimolar oral dose relative to 10 mg/kg, po indomethacin dosed after 14 days from day of adjuvant injection until day 21 and measured on day 3; format: functional
[14] = test system: Rattus norvegicus; assay: Toxicity in healthy albino rat assessed as induction of tremors up to 500 mg/kg, po; format: organism-based; conditions: in vivo
[15] = test system: Rattus norvegicus; assay: Anti-inflammatory activity in rat Freund's adjuvant induced arthritis model of chronic inflammation assessed as inhibition of right hind paw swelling at equimolar oral dose relative to 10 mg/kg, po indomethacin dosed after 14 days from day of adjuvant injection until day 21 and measured on day 15; format: functional
[16] = test system: Rattus norvegicus; assay: Anti-inflammatory activity in rat model of acute inflammation assessed as inhibition of carrageenan-induced paw oedema dosed at equimolar oral dose relative to 10 mg/kg, po indomethacin dosed 1 hr before carrageenan injection and measured 6 hrs after carrageenan injection; format: functional
[17] = test system: Rattus norvegicus; assay: Toxicity in healthy albino rat assessed as induction of salivation up to 500 mg/kg, po; format: organism-based; conditions: in vivo
[18] = test system: Mus musculus; assay: Analgesic activity in Swiss albino mouse assessed as reduction in formalin-induced paw licking by measuring time spent on licking during phase-1 at equimolar oral dose relative to 10 mg/kg, po indomethacin dosed 1 hr before formalin challenge and measured 30 mins after formalin injection; format: functional
[19] = test system: Rattus norvegicus; assay: as §1, with “Hepato-toxicity” for “Renal toxicity”, “SGPT” for “total protein”, “34.23” for “1.78”, “2.5 U/mL)” for “0.11 g/dL)”; format: organism-based; conditions: in vivo, 336 h
[20] = test system: Rattus norvegicus; assay: as §1, with “blood urea nitrogen” for “total protein”, “23.48” for “1.78”, “1.8 mg/dL)” for “0.11 g/dL)”; format: organism-based; conditions: in vivo, 336 h
[21] = test system: Rattus norvegicus; assay: Toxicity in healthy albino rat assessed as induction of diarrhoea up to 500 mg/kg, po; format: organism-based; conditions: in vivo
[22] = test system: Rattus norvegicus; assay: Anti-inflammatory activity in rat model of acute inflammation assessed as inhibition of carrageenan-induced paw oedema dosed at equimolar oral dose relative to 10 mg/kg, po indomethacin dosed 1 hr before carrageenan injection and measured 3 hrs after carrageenan injection; format: functional
[23] = test system: Rattus norvegicus; assay: Anti-inflammatory activity in rat Freund's adjuvant induced arthritis model of chronic inflammation assessed as inhibition of right hind paw swelling at equimolar oral dose relative to 10 mg/kg, po indomethacin dosed after 14 days from day of adjuvant injection until day 21 and measured on day 6; format: functional
[24] = test system: Rattus norvegicus; assay: Anti-inflammatory activity in rat Freund's adjuvant induced arthritis model of chronic inflammation assessed as inhibition of right hind paw swelling at equimolar oral dose relative to 10 mg/kg, po indomethacin dosed after 14 days from day of adjuvant injection until day 21 and measured on day 12; format: functional
[25] = test system: Mus musculus; assay: Analgesic activity in Swiss albino mouse assessed as reduction in number of writhing episodes at equimolar oral dose relative to 10 mg/kg, po indomethacin measured 30 mins following acetic acid injection; format: functional
[26] = test system: Rattus norvegicus; assay: Anti-inflammatory activity in rat Freund's adjuvant induced arthritis model of chronic inflammation assessed as inhibition of right hind paw swelling at equimolar oral dose relative to 10 mg/kg, po indomethacin dosed after 14 days from day of adjuvant injection until day 21 and measured on day 18; format: functional
[27] = test system: Rattus norvegicus; assay: Toxicity in healthy albino rat assessed as induction of sleep up to 500 mg/kg, po; format: organism-based; conditions: in vivo
[28] = test system: Rattus norvegicus; assay: Toxicity in healthy albino rat assessed as induction of coma up to 500 mg/kg, po; format: organism-based; conditions: in vivo
[29] = test system: Rattus norvegicus; assay: as §1, with “Hepato-toxicity” for “Renal toxicity”, “SGOT” for “total protein”, “92.48” for “1.78”, “7.8 U/mL)” for “0.11 g/dL)”; format: organism-based; conditions: in vivo, 336 h
[30] = test system: Rattus norvegicus; assay: Anti-inflammatory activity in rat model of acute inflammation assessed as inhibition of carrageenan-induced paw oedema dosed at equimolar oral dose relative to 10 mg/kg, po indomethacin dosed 1 hr before carrageenan injection and measured 2 hrs after carrageenan injection; format: functional

SMILES	inhibition [1]	Activity [2]	Activity [3]	Activity [4]	IC50 [5]	Activity [6]	Activity [7]	inhibition (INH) [8]	inhibition (INH) [9]	Activity [10]	logP [11]	Activity [12]	inhibition (INH) [13]	Activity [14]	inhibition (INH) [15]	inhibition (INH) [16]	Activity [17]	inhibition (INH) [18]	Activity [19]	Activity [20]	other results
COc1ccc(-c2nnc(Cn3nc(-c4ccccc4)c(-c4ccccc4)nc3=O)o2)cc1	76.7%	1.81 g/dL	Non-toxic	22.11 U	44.9 µM	Non-toxic	Non-toxic	74.38%	88.2%	58.51 mg	3.56	Non-toxic	30.02%	Non-toxic	43.46%	52.71%	Non-toxic	10.59%	41.31 U/ml	40.62 mg/dL	Activity [21]: Non-toxic; inhibition (INH) [22]: 48.11%; inhibition (INH) [23]: 35.14%; inhibition (INH) [24]: 41.05%; inhibition (INH) [25]: 70.21%; inhibition (INH) [26]: 45.78%; Activity [27]: Non-toxic; Activity [28]: Non-toxic; Activity [29]: 103.17 U/ml; inhibition (INH) [30]: 38.71%
O=c1nc(-c2ccccc2)c(-c2ccccc2)nn1Cc1nnc(-c2ccc(O)cc2O)o1	80.8%	1.88 g/dL	Non-toxic	19.56 U	43.3 µM	Non-toxic	Non-toxic	75.21%	94.3%	56.11 mg	3.46	Non-toxic	31.26%	Non-toxic	49.82%	57.56%	Non-toxic	10.73%	39.67 U/ml	38.67 mg/dL	Activity [21]: Non-toxic; inhibition (INH) [22]: 53.27%; inhibition (INH) [23]: 37.61%; inhibition (INH) [24]: 43.97%; inhibition (INH) [25]: 72.4%; inhibition (INH) [26]: 52.44%; Activity [27]: Non-toxic; Activity [28]: Non-toxic; Activity [29]: 99.35 U/ml; inhibition (INH) [30]: 44.47%
Nc1ccc(-c2nnc(Cn3nc(-c4ccccc4)c(-c4ccccc4)nc3=O)o2)cc1	80.3%	1.86 g/dL	Non-toxic	20.64 U	43.4 µM	Non-toxic	Non-toxic	74.57%	93.92%	56.29 mg	3.72	Non-toxic	31.14%	Non-toxic	47.9%	55.96%	Non-toxic	12.45%	39.11 U/ml	33.85 mg/dL	Activity [21]: Non-toxic; inhibition (INH) [22]: 51.89%; inhibition (INH) [23]: 36.5%; inhibition (INH) [24]: 45.8%; inhibition (INH) [25]: 71.85%; inhibition (INH) [26]: 49.23%; Activity [27]: Non-toxic; Activity [28]: Non-toxic; Activity [29]: 98.21 U/ml; inhibition (INH) [30]: 41.76%
O=c1nc(-c2ccccc2)c(-c2ccccc2)nn1Cc1nnc(-c2ccc(Cl)cc2)o1	78.2%	1.91 g/dL	Non-toxic	20.28 U	44.2 µM	Non-toxic	Non-toxic	75.85%	92.02%	57.8 mg	3.91	Non-toxic	30.02%	Non-toxic	45.86%	55.47%	Non-toxic	12.11%	42.45 U/ml	42.28 mg/dL	Activity [21]: Non-toxic; inhibition (INH) [22]: 51.32%; inhibition (INH) [23]: 35.28%; inhibition (INH) [24]: 43.36%; inhibition (INH) [25]: 73.26%; inhibition (INH) [26]: 48.87%; Activity [27]: Non-toxic; Activity [28]: Non-toxic; Activity [29]: 107.18 U/ml; inhibition (INH) [30]: 39.28%
O=c1nc(-c2ccccc2)c(-c2ccccc2)nn1Cc1nnc(-c2ccc([N+](=O)[O-])cc2)o1	78.4%	1.84 g/dL	Non-toxic	19.92 U	44.8 µM	Non-toxic	Non-toxic	78.04%	89.33%	58.07 mg	3.71	Non-toxic	32.01%	Non-toxic	43.82%	52.27%	Non-toxic	13.68%	45.28 U/ml	39.24 mg/dL	Activity [21]: Non-toxic; inhibition (INH) [22]: 49.6%; inhibition (INH) [23]: 36.13%; inhibition (INH) [24]: 41.78%; inhibition (INH) [25]: 74.84%; inhibition (INH) [26]: 45.9%; Activity [27]: Non-toxic; Activity [28]: Non-toxic; Activity [29]: 102.38 U/ml; inhibition (INH) [30]: 41.42%
